Laboratory results reported in ChEMBL document CHEMBL5370629, “Probing the Interactions of Thiazole Abietane Inhibitors with the Human Serine Hydrolases ABHD16A and ABHD12” (ACS Med Chem Lett, 2023).

Legend:
[1] = target: T1, Phosphatidylserine lipase ABHD16A (Mus musculus) (UniProt Q9Z1Q2); assay: Inhibition of azido-fluorophosphonate probe binding to mouse ABHD16A expressed in HEK293T cells at 20 to 100 uM incubated for 1 hr followed by azido-fluorophosphonate addition and measured after 1 hr by fluorescent Western blotting analysis relative to control; type: cell-based; conditions: dose 20-100 µM, time 2.0 hrs
T1 sequence (whole entry): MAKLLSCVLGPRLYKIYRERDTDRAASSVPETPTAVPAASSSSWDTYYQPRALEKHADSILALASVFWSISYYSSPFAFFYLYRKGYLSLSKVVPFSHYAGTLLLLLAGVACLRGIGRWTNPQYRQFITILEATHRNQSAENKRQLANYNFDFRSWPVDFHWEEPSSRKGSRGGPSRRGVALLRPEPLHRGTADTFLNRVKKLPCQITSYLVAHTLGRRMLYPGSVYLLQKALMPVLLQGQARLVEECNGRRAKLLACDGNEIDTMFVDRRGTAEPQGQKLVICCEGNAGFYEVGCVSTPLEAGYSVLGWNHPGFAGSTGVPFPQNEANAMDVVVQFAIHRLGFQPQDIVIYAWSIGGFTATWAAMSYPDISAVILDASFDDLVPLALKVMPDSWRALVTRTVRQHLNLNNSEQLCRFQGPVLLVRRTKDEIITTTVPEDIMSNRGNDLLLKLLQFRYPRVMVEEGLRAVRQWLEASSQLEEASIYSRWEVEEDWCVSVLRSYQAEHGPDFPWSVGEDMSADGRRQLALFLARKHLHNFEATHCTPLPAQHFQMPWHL

[2] = target: T2, Lysophosphatidylserine lipase ABHD12 (Homo sapiens, UniProt Q8N2K0); assay: Inhibition of azido-fluorophosphonate probe binding to human ABHD12 expressed in HEK293T cells at 20 to 100 uM incubated for 1 hr followed by azido-fluorophosphonate addition and measured after 1 hr by fluorescent Western blotting analysis; type: toxicity, cell-based; conditions: 2 h, dose 20-100 µM
T2 sequence (Q8N2K0 whole entry): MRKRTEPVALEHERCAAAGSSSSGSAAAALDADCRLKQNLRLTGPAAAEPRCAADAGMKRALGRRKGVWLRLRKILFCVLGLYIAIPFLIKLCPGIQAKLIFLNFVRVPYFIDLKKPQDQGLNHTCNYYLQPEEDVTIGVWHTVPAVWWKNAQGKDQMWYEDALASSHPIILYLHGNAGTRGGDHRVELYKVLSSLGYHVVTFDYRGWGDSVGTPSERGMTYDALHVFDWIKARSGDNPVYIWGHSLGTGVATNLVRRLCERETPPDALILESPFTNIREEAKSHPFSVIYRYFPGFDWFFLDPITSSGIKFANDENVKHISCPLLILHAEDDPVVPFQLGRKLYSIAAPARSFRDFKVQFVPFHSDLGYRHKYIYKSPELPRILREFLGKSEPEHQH

[3] = target: T3, Phosphatidylserine lipase ABHD16A (Homo sapiens) (UniProt O95870); assay: Inhibition of azido-fluorophosphonate probe binding to human ABHD16A expressed in HEK293T cells at 20 uM incubated for 1 hr followed by azido-fluorophosphonate addition and measured after 1 hr by fluorescent Western blotting analysis relative to control; type: cell-based; conditions: time 2.0 hrs
T3 sequence (whole entry): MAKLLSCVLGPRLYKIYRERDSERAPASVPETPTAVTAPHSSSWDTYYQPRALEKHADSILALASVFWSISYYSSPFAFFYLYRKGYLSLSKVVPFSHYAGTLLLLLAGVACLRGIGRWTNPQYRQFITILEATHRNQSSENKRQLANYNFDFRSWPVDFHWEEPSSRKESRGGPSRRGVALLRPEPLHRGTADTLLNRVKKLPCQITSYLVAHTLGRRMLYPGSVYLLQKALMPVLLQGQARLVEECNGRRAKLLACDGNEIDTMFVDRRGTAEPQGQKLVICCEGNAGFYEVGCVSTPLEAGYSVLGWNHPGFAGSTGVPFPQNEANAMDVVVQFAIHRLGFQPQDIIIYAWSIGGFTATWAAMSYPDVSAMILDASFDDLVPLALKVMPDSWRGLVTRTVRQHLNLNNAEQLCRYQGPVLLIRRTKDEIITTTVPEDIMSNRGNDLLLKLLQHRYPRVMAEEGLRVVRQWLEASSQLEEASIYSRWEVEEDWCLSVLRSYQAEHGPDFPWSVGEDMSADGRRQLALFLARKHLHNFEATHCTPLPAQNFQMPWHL

[4] = target: T1, Phosphatidylserine lipase ABHD16A (Mus musculus); assay: Inhibition of azido-fluorophosphonate probe binding to mouse ABHD16A expressed in HEK293T cells at 200 uM incubated for 1 hr followed by azido-fluorophosphonate addition and measured after 1 hr by fluorescent Western blotting analysis relative to control; type: cell-based; conditions: time 2.0 hrs
[5] = target: T3, Phosphatidylserine lipase ABHD16A (Homo sapiens); assay: Inhibition of azido-fluorophosphonate probe binding to human ABHD16A expressed in HEK293T cells at 100 uM incubated for 1 hr followed by azido-fluorophosphonate addition and measured after 1 hr by fluorescent Western blotting analysis relative to control; type: cell-based; conditions: time 2.0 hrs
[6] = target: T4, ABHD12 (lysophosphatidylserine lipase) (Homo sapiens, UniProt Q8N2K0); assay: Inhibition of azido-fluorophosphonate probe binding to human ABHD12 expressed in HEK293T cells at 100 uM incubated for 1 hr followed by azido-fluorophosphonate addition and measured after 1 hr by fluorescent Western blotting analysis relative to control; type: toxicity, cell-based; conditions: HEK293T cells that express human ABHD12, probe azido-fluorophosphonate
T4 sequence (Q8N2K0 whole entry): T2 sequence (Q8N2K0 whole entry)

[7] = target: T4, ABHD12 (lysophosphatidylserine lipase); assay: Inhibition of azido-fluorophosphonate probe binding to human ABHD12 expressed in HEK293T cells at 20 uM incubated for 1 hr followed by azido-fluorophosphonate addition and measured after 1 hr by fluorescent Western blotting analysis relative to control; type: toxicity, cell-based; conditions: HEK293T cells that express human ABHD12, probe azido-fluorophosphonate
[8] = target: T1, Phosphatidylserine lipase ABHD16A (Mus musculus); assay: Inhibition of azido-fluorophosphonate probe binding to mouse ABHD16A expressed in HEK293T cells at 20 uM incubated for 1 hr followed by azido-fluorophosphonate addition and measured after 1 hr by fluorescent Western blotting analysis relative to control; type: cell-based; conditions: time 2.0 hrs

CC(C)c1cc2c(cc1-c1csc([C@H](C)O)n1)[C@@]1(C)CCCC(C)(C)[C@@H]1CC2
inhibition [1]: 34.1%
inhibition (INH) [2]: Not Active

COC(=O)[C@]1(C)CCC[C@]2(C)c3cc(-c4csc([C@H](C)O)n4)c(C(C)C)cc3CC[C@@H]12
inhibition [3]: 35.7%
inhibition [4]: 66.4%
inhibition [5]: 48%
inhibition at 2 h, 100 µM [6]: 60.9%
inhibition at 2 h, 20 µM [7]: 54%

COC(=O)[C@]1(C)CCC[C@]2(C)c3cc(-c4csc(C)n4)c(C(C)C)cc3C(=O)C[C@@H]12
inhibition [3]: 32.2%
inhibition [4]: 73.2%
inhibition [5]: 55.1%

COC(=O)[C@]1(C)CCC[C@]2(C)c3cc(-c4csc(COC(C)=O)n4)c(C(C)C)cc3CC[C@@H]12
inhibition [4]: 62.9%
inhibition [5]: 48.4%

CC(C)c1cc2c(cc1-c1csc([C@H](C)O)n1)[C@@]1(C)CCC[C@@](C)(C(N)=O)[C@@H]1CC2
inhibition [4]: 59.8%
inhibition [5]: 37.6%

CC(=O)c1nc(-c2cc3c(cc2C(C)C)CC[C@H]2[C@](C)(C(N)=O)CCC[C@]32C)cs1
inhibition [3]: 33.5%
inhibition [4]: 83.5%
inhibition [8]: 55.5%
inhibition [5]: 45.5%
